From patent US8552208B2, “Analogs of tetramic acid” (University of Tennesseee Research Foundation, priority 2007, dated 2013)
In brackets after ≈: the same amount, converted by molar mass. Read-outs that look alike come from different tables or passages of the source.

Tests used:
[1] = tested on: Propionibacterium acnes ATCC 6919; experiment: Antibacterial activity assay (MIC, broth dilution); assay type: cell-based; conditions: Cutibacterium acnes, ATCC6919; Propionibacterium acnes ATCC 6919; read-out: MIC, PA
[2] = tested on: Bacillus subtilis ATCC 23857; experiment: Antibacterial activity assay (MIC, broth dilution); assay type: cell-based; conditions: ATCC23857; Bacillus subtilis ATCC 23857; read-out: MIC, BS
[3] = tested on: Bacillus anthracis Sterne 34F2; experiment: microbe, parasite or virus in culture; assay type: cell-based; conditions: STERNE34F2, read-out: MIC, BA
[4] = tested on: Methicillin sensitive Staphylococcus aureus 8325 ATCC 35556; experiment: Antibacterial activity assay (MIC, broth dilution); assay type: cell-based; conditions: ATCC 35556 / MSSA; Methicillin sensitive Staphylococcus aureus 8325 ATCC 35556; read-out: MIC, MSSA
[5] = tested on: Streptococcus pneumoniae DAW30EC; experiment: Antibacterial activity assay (MIC, broth dilution); assay type: cell-based; conditions: Streptococcus pneumoniae DAW30EC; read-out: MIC, SPn
[6] = tested on: Streptococcus pyogenes ATCC 700294; experiment: Antibacterial activity assay (MIC, broth dilution); assay type: cell-based; conditions: ATCC700294; Streptococcus pyogenes ATCC 700294; read-out: MIC, SP
[7] = tested on: Mycobacterium tuberculosis H37 Rv; experiment: Antibacterial activity assay (MIC, broth dilution); assay type: cell-based; conditions: H37RV, 168 h; Mycobacterium tuberculosis H37 Rv; […]; read-out: MIC, TB
[8] = tested on: Enterococcus faecalis ATCC 33186; experiment: Antibacterial activity assay (MIC, broth dilution); assay type: cell-based; conditions: ATCC33186; Enterococcus faecalis ATCC 33186; read-out: MIC, EF
[9] = tested on: Methicillin Resistant Staphylococcus aureus ATCC 33591; experiment: Antibacterial activity assay (MIC, broth dilution); assay type: cell-based; conditions: ATCC 33591 / MRSA, read-out: MIC, MRSA
[10] = tested on: Vero monkey kidney cell line (ATCC, CCL-81); experiment: Cytotoxicity assay (MTT); assay type: cell-based
Procedure: (§1) Cytotoxicity assays of drugs of Formula I of Example 3 and of Formula II of Example 5 were performed using the Vero monkey kidney cell line (ATCC, CCL-81). Vero cells were grown in tissue culture flasks in Dulbecco's Modified Eagle's Medium (ATCC) supplemented with 10% fetal bovine serum and maintained in a humidified incubator (37° C., 5% CO2). Cells were removed with a cell scraper, collected by centrifugation and then suspended in fresh medium at ˜10^6 cells/mL. The cell suspensions were dispensed into 96-well microtiter plates (100 μl/well) and incubated for 18 hours at 37° C. before being used for cytotoxicity assays. Test compounds were subsequently added at concentrations ranging from 400-0.024 μg/mL and 0.1% vol/vol of Triton-X 100, which causes 100% death of cells, was included as a control. After incubating cells and compounds for 72 hours in humid air (37° C., 5% CO2) the cytopathic effects of compounds were determined using the MTT Cell Proliferation Assay (ATCC, Cat No. 30-1010K). The MTT solution reagent (10 μl) was added to each well and plates incubated at 37° C. until sufficient purple color development occurred in cells (3 hours). After detergent cell lysis, the purple formazan product was measured at 570 nm in a Synergy HT Biotek microplate reader. IC50 data was obtained from dose response curves plotted from percentage activity versus log10 concentration using Graphpad prism 5.

[11] = Cytotoxicity assay (MTT); assay type: cell-based, monkey; conditions: monkey, Vero cells, 72 hours, MTT, read-out: IC50 (Cytotoxicity): Concentration which reduces viability of Vero kidney cells by 50%
Procedure: as §1

[12] = IC50 divided by MIC against S. aureus 8325
[13] = Vero monkey kidney cells (ATCC CCL-81)

CCC(C)[C@H]1C(O)=C(C#N)C(=O)N1Cc1ccccc1 (stereo partly drawn) [Compound 12a, (S)-1-benzyl-5-sec-butyl-4-hydroxy-2-oxo-2,5-dihydro-1H-pyrrole-3-carbonitrile]
MIC [1]: > 200 µg/mL
MIC [2]: > 200 µg/mL
MIC [3]: > 200 µg/mL
MIC [4]: > 200 µg/mL
MIC [5]: > 200 µg/mL
MIC [6]: > 200 µg/mL
MIC [7]: > 200 µg/mL
MIC [8]: > 200 µg/mL
MIC [9]: > 200 µg/mL

CCCCCCCCCCN1C(=O)C(C#N)=C(O)[C@@H]1CC(C)C [Compound 12b, (S)-1-decyl-4-hydroxy-5-isobutyl-2-oxo-2,5-dihydro-1H-pyrrole-3-carbonitrile]
MIC [1]: 12.5 µg/mL (≈ 39 µM)
IC50/MIC = Selectivity (therapeutic) index [10, 12]: 6.1
IC50 at 72 h [11]: 152 µg/mL
MIC [2]: 50 µg/mL (≈ 156 µM)
MIC [3]: 25 µg/mL (≈ 78 µM)
MIC [4]: 25 µg/mL (≈ 78 µM)
MIC [5]: 100 µg/mL (≈ 312 µM)
MIC [6]: > 200 µg/mL
MIC [7]: 3.12 µg/mL (≈ 9.74 µM)
MIC [8]: 25 µg/mL (≈ 78 µM)
MIC [9]: 25 µg/mL (≈ 78 µM)

N#CC1=C(O)[C@H](Cc2ccccc2)N(Cc2ccccc2)C1=O [Compound 12c, (S)-1,5-dibenzyl-4-hydroxy-2-oxo-2,5-dihydro-1H-pyrrole-3-carbonitrile]
MIC [1]: > 200 µg/mL
MIC [2]: > 200 µg/mL
MIC [3]: > 200 µg/mL
MIC [4]: > 200 µg/mL
MIC [5]: > 200 µg/mL
MIC [6]: > 200 µg/mL
MIC [7]: > 200 µg/mL
MIC [8]: > 200 µg/mL
MIC [9]: > 200 µg/mL

COc1cccc(CN2C(=O)C(C#N)=C(O)[C@@H]2CC(C)C)c1 [Compound 12d, (S)-4-hydroxy-5-isobutyl-1-(3-methoxybenzyl)-2-oxo-2,5-dihydro-1H-pyrrole-3-carbonitrile]
MIC [1]: > 200 µg/mL
MIC [2]: > 200 µg/mL
MIC [3]: > 200 µg/mL
MIC [4]: > 200 µg/mL
MIC [5]: > 200 µg/mL
MIC [6]: > 200 µg/mL
MIC [7]: > 200 µg/mL
MIC [8]: > 200 µg/mL
MIC [9]: > 200 µg/mL

CC(C)C[C@H]1C(O)=C(C#N)C(=O)N1Cc1ccc(F)cc1 [Compound 12e, (S)-1-(4-fluorobenzyl)-4-hydroxy-5-isobutyl-2-oxo-2,5-dihydro-1H-pyrrole-3-carbonitrile]
MIC [1]: > 200 µg/mL
MIC [2]: > 200 µg/mL
MIC [3]: > 200 µg/mL
MIC [4]: > 200 µg/mL
MIC [5]: > 200 µg/mL
MIC [6]: > 200 µg/mL
MIC [7]: > 200 µg/mL
MIC [8]: > 200 µg/mL
MIC [9]: > 200 µg/mL

CC(C)C[C@@H]1C(O)=C(C#N)C(=O)N1Cc1ccc(F)cc1 [Compound 12f, (R)-1-(4-fluorobenzyl)-4-hydroxy-5-isobutyl-2-oxo-2,5-dihydro-1H-pyrrole-3-carbonitrile]
MIC [1]: > 200 µg/mL
MIC [2]: > 200 µg/mL
MIC [3]: > 200 µg/mL
MIC [4]: > 200 µg/mL
MIC [5]: > 200 µg/mL
MIC [6]: > 200 µg/mL
MIC [7]: > 200 µg/mL
MIC [8]: > 200 µg/mL
MIC [9]: > 200 µg/mL

N#CC1=C(O)[C@@H](Cc2ccccc2)N(Cc2ccccc2)C1=O [Compound 12g, (R)-1,5-dibenzyl-4-hydroxy-2-oxo-2,5-dihydro-1H-pyrrole-3-carbonitrile]
MIC [1]: > 200 µg/mL
MIC [2]: > 200 µg/mL
MIC [3]: > 200 µg/mL
MIC [4]: > 200 µg/mL
MIC [5]: > 200 µg/mL
MIC [6]: > 200 µg/mL
MIC [7]: > 200 µg/mL
MIC [8]: > 200 µg/mL
MIC [9]: > 200 µg/mL

CCC(C)[C@H]1C(O)=C(C#N)C(=O)N1Cc1ccco1 (stereo partly drawn) [Compound 12p, (S)-5-sec-butyl-1-(furan-2-ylmethyl)-4-hydroxy-2-oxo-2,5-dihydro-1H-pyrrole-3-carbonitrile]
MIC [1]: 12.5 µg/mL (≈ 48 µM)
IC50/MIC = Selectivity (therapeutic) index ([10]; IC50 divided by MIC against E. faecalis (12p only)): 2049.7
IC50 at 72 h [11]: 6400 µg/mL
MIC [2]: 25 µg/mL (≈ 96 µM)
MIC [3]: 3.12 µg/mL (≈ 12 µM)
MIC [4]: > 200 µg/mL
MIC [5]: 50 µg/mL (≈ 192 µM)
MIC [6]: > 200 µg/mL
MIC [7]: > 200 µg/mL
MIC [8]: 3.12 µg/mL (≈ 12 µM)
MIC [9]: > 200 µg/mL

CCC(C)[C@H]1C(=O)/C(=C(\C)O)C(=O)N1Cc1ccccc1 (stereo partly drawn) [Compound 13a, (S,Z)-1-benzyl-5-sec-butyl-3-(1-hydroxyethylidene)pyrrolidine-2,4-dione]
MIC [1]: 6.25 µg/mL (≈ 21.7 µM)
IC50/MIC = Selectivity (therapeutic) index [10, 12]: 4.2
IC50 at 72 h [11]: 26.3 µg/mL
MIC [2]: 25 µg/mL (≈ 87 µM)
MIC [3]: 3.12 µg/mL (≈ 10.9 µM)
MIC [4]: 6.25 µg/mL (≈ 21.7 µM)
MIC [5]: 50 µg/mL (≈ 174 µM)
MIC [6]: > 200 µg/mL
MIC [7]: 50 µg/mL (≈ 174 µM)
MIC [8]: 6.25 µg/mL (≈ 21.7 µM)
MIC [9]: 6.25 µg/mL (≈ 21.7 µM)

C/C(O)=C1\C(=O)[C@H](Cc2ccccc2)N(Cc2ccccc2)C1=O [Compound 13c, (S,Z)-1,5-dibenzyl-3-(1-hydroxyethylidene)pyrrolidine-2,4-dione]
MIC [1]: 12.5 µg/mL (≈ 38.9 µM)
IC50/MIC = Selectivity (therapeutic) index [10, 12]: 6.1
IC50 at 72 h [11, 13]: 75.7 µg/mL
MIC [2]: 25 µg/mL (≈ 77.8 µM)
MIC [3]: 25 µg/mL (≈ 77.8 µM)
MIC [4]: 12.5 µg/mL (≈ 38.9 µM)
MIC [5]: 100 µg/mL (≈ 311 µM)
MIC [6]: > 200 µg/mL
MIC [7]: > 200 µg/mL
MIC [8]: 100 µg/mL (≈ 311 µM)
MIC [9]: 25 µg/mL (≈ 77.8 µM)

COc1cccc(CN2C(=O)/C(=C(/C)O)C(=O)[C@@H]2CC(C)C)c1 [Compound 13d, (S,Z)-3-(1-hydroxyethylidene)-5-isobutyl-1-(3-methoxybenzyl)pyrrolidine-2,4-dione]
MIC [1]: 12.5 µg/mL (≈ 39.4 µM)
IC50/MIC = Selectivity (therapeutic) index [10, 12]: 3.2
IC50 at 72 h [11]: 40 µg/mL
MIC [2]: 25 µg/mL (≈ 78.8 µM)
MIC [3]: 25 µg/mL (≈ 78.8 µM)
MIC [4]: 12.5 µg/mL (≈ 39.4 µM)
MIC [5]: 50 µg/mL (≈ 158 µM)
MIC [6]: 200 µg/mL (≈ 630 µM)
MIC [7]: 100 µg/mL (≈ 315 µM)
MIC [8]: 100 µg/mL (≈ 315 µM)
MIC [9]: 25 µg/mL (≈ 78.8 µM)

C/C(O)=C1\C(=O)[C@H](CC(C)C)N(Cc2ccc(F)cc2)C1=O [Compound 13e, (S,Z)-1-(4-fluorobenzyl)-3-(1-hydroxyethylidene)-5-isobutylpyrrolidine-2,4-dione]
MIC [1]: 6.25 µg/mL (≈ 20.5 µM)
IC50/MIC = Selectivity (therapeutic) index [10, 12]: 2.2
IC50 at 72 h [11]: 27.8 µg/mL
MIC [2]: 25 µg/mL (≈ 81.9 µM)
MIC [3]: 12.5 µg/mL (≈ 40.9 µM)
MIC [4]: 12.5 µg/mL (≈ 40.9 µM)
MIC [5]: 50 µg/mL (≈ 164 µM)
MIC [6]: 100 µg/mL (≈ 327 µM)
MIC [7]: 100 µg/mL (≈ 327 µM)
MIC [8]: 50 µg/mL (≈ 164 µM)
MIC [9]: 25 µg/mL (≈ 81.9 µM)

C/C(O)=C1\C(=O)[C@@H](CC(C)C)N(Cc2ccc(F)cc2)C1=O [Compound 13f, (R,Z)-1-(4-fluorobenzyl)-3-(1-hydroxyethylidene)-5-isobutylpyrrolidine-2,4-dione]
MIC [1]: 12.5 µg/mL (≈ 40.9 µM)
IC50/MIC = Selectivity (therapeutic) index [10, 12]: 2.8
IC50 at 72 h [11]: 35.3 µg/mL
MIC [2]: 12.5 µg/mL (≈ 40.9 µM)
MIC [3]: 12.5 µg/mL (≈ 40.9 µM)
MIC [4]: 12.5 µg/mL (≈ 40.9 µM)
MIC [5]: 25 µg/mL (≈ 81.9 µM)
MIC [6]: 100 µg/mL (≈ 327 µM)
MIC [7]: 100 µg/mL (≈ 327 µM)
MIC [8]: 50 µg/mL (≈ 164 µM)
MIC [9]: 12.5 µg/mL (≈ 40.9 µM)

C/C(O)=C1\C(=O)[C@@H](Cc2ccccc2)N(Cc2ccccc2)C1=O [Compound 13g, (R,Z)-1,5-dibenzyl-3-(1-hydroxyethylidene)pyrrolidine-2,4-dione]
MIC [1]: 25 µg/mL (≈ 77.8 µM)
IC50/MIC = Selectivity (therapeutic) index [10, 12]: 3.2
IC50 at 72 h [11, 13]: 80.6 µg/mL
MIC [2]: 25 µg/mL (≈ 77.8 µM)
MIC [3]: 25 µg/mL (≈ 77.8 µM)
MIC [4]: 25 µg/mL (≈ 77.8 µM)
MIC [5]: 50 µg/mL (≈ 156 µM)
MIC [6]: 200 µg/mL (≈ 622 µM)
MIC [7]: > 200 µg/mL
MIC [8]: 100 µg/mL (≈ 311 µM)
MIC [9]: 25 µg/mL (≈ 77.8 µM)

CCN1C(=O)/C(=C(/C)O)C(=O)[C@@H]1Cc1ccccc1 [Compound 13h, (S,Z)-5-benzyl-1-ethyl-3-(1-hydroxyethylidene)pyrrolidine-2,4-dione]
MIC [1]: 100 µg/mL (≈ 386 µM)
MIC [2]: > 200 µg/mL
MIC [3]: 50 µg/mL (≈ 193 µM)
MIC [4]: 200 µg/mL (≈ 771 µM)
MIC [5]: > 200 µg/mL
MIC [6]: > 200 µg/mL
MIC [7]: > 200 µg/mL
MIC [8]: > 200 µg/mL
MIC [9]: > 200 µg/mL
